Data as given in ChEMBL document CHEMBL3272271, “Folate antagonists. 13. 2,4-Diamino-6-](alpha,alpha,alpha-trifluoro-m-tolyl)thio]quinazoline and related 2,4-diamino-6-[(phenyl- and naphthyl)thio]quinazolines, a unique class of antimetabolites with extraordinary antimalarial and antibacterial effects” (J Med Chem, 1978).
Values after ≈ are worked out from the molar mass of the structure shown. Active and inactive are the calls of the source. The rule behind the calls is not given here.

How the values were obtained:
Plasmodium berghei [1] = test: Antimalarial activity against trophozoite-induced Plasmodium berghei infected in mouse assessed as daily dose required to suppression of 90% parasite infection administered with diet for 6 days; type: functional
Plasmodium gallinaceum [2] = test: Antimalarial activity against sporozoite-induced Plasmodium gallinaceum infected in white leghorn chicken assessed as disease cure from parasite infection at 20 mg/kg, sc administered 72 hrs after infection; type: functional, organism-based; design: dose 20 mg/kg
Plasmodium berghei [3] = test: Antimalarial activity against Plasmodium berghei infected in mouse assessed as increase in mean survival days of host at 10 mg/kg, sc administered 72 hrs after infection relative to control; type: functional; settings: route subcutaneous
Plasmodium berghei [4] = test: Antimalarial activity against Plasmodium berghei infected in mouse assessed as increase in mean survival days of host at 1.25 mg/kg, sc administered 72 hrs after infection relative to control; type: functional; settings: route subcutaneous
Plasmodium gallinaceum [5] = test: Antimalarial activity against sporozoite-induced Plasmodium gallinaceum infected in white leghorn chicken assessed as disease cure from parasite infection at 320 mg/kg, sc administered 72 hrs after infection; type: functional, organism-based; design: dose 320 mg/kg
Plasmodium berghei [6] = test: Antimalarial activity against Plasmodium berghei infected in mouse assessed as increase in mean survival days of host at 2.5 mg/kg, sc administered 72 hrs after infection relative to control; type: functional; settings: route subcutaneous
Plasmodium berghei [7] = test: Antimalarial activity against Plasmodium berghei infected in mouse assessed as disease cure from parasite infection at 160 mg/kg, sc administered 72 hrs after infection; type: functional, organism-based; design: dose 160 mg/kg
Plasmodium gallinaceum [8] = test: Antimalarial activity against sporozoite-induced Plasmodium gallinaceum infected in white leghorn chicken assessed as disease cure from parasite infection at 160 mg/kg, sc administered 72 hrs after infection; type: functional, organism-based; design: dose 160 mg/kg
Plasmodium berghei [9] = test: Ratio of quinine hydrochloride SD90 to compound SD90 for trophozoite-induced Plasmodium berghei infected in mouse assessed as daily dose required to suppression of 90% parasite infection administered with diet for 6 days; type: functional
Gallus gallus = test: Toxicity in sporozoite-induced Plasmodium gallinaceum infected white leghorn chicken assessed as mortality at 320 mg/kg, sc administered 72 hrs after infection measured up to 6 days; type: organism-based; design: dose 320 mg/kg, route subcutaneous; settings: in vivo
Plasmodium berghei [10] = test: Antimalarial activity against Plasmodium berghei infected in mouse assessed as disease cure from parasite infection at 80 mg/kg, sc administered 72 hrs after infection; type: functional, organism-based; design: dose 80 mg/kg
Plasmodium gallinaceum [11] = test: Antimalarial activity against sporozoite-induced Plasmodium gallinaceum infected in white leghorn chicken assessed as disease cure from parasite infection at 40 mg/kg, sc administered 72 hrs after infection; type: functional, organism-based; design: dose 40 mg/kg
Mus musculus [12] = test: Toxicity in Plasmodium berghei infected mouse assessed as mortality at 640 mg/kg, sc administered 72 hrs after infection measured after 2 to 5 days; type: organism-based; design: dose 640 mg/kg, route subcutaneous; settings: in vivo
Plasmodium berghei [13] = test: Antimalarial activity against Plasmodium berghei infected in mouse assessed as disease cure from parasite infection at 40 mg/kg, sc administered 72 hrs after infection; type: functional, organism-based; design: dose 40 mg/kg
Plasmodium berghei [14] = test: Antimalarial activity against Plasmodium berghei infected in mouse assessed as disease cure from parasite infection at 640 mg/kg, sc administered 72 hrs after infection; type: functional, organism-based; design: dose 640 mg/kg
Plasmodium berghei [15] = test: Antimalarial activity against Plasmodium berghei infected in mouse assessed as increase in mean survival days of host at 5 mg/kg, sc administered 72 hrs after infection relative to control; type: functional; settings: route subcutaneous
Plasmodium berghei [16] = test: Antimalarial activity against Plasmodium berghei infected in mouse assessed as disease cure from parasite infection at 320 mg/kg, sc administered 72 hrs after infection; type: functional, organism-based; design: dose 320 mg/kg
Plasmodium gallinaceum [17] = test: Antimalarial activity against sporozoite-induced Plasmodium gallinaceum infected in white leghorn chicken assessed as disease cure from parasite infection at 80 mg/kg, sc administered 72 hrs after infection; type: functional, organism-based; design: dose 80 mg/kg
Plasmodium berghei [18] = test: Antimalarial activity against Plasmodium berghei infected in mouse assessed as increase in mean survival days of host at 20 mg/kg, sc administered 72 hrs after infection relative to control; type: functional; settings: route subcutaneous
Plasmodium gallinaceum [19] = test: Antimalarial activity against sporozoite-induced Plasmodium gallinaceum infected in white leghorn chicken assessed as disease cure from parasite infection at 10 mg/kg, sc administered 72 hrs after infection; type: functional, organism-based; design: dose 10 mg/kg
Mus musculus [20] = test: Toxicity in Plasmodium berghei infected mouse assessed as mortality at 320 mg/kg, sc administered 72 hrs after infection measured after 2 to 5 days; type: organism-based; design: dose 320 mg/kg, route subcutaneous; settings: in vivo
[21] = system: Mycobacterium tuberculosis; test: Antibacterial activity against Mycobacterium tuberculosis H37Ra by gradient plate test; type: functional
Plasmodium gallinaceum [22] = test: Antimalarial activity against sporozoite-induced Plasmodium gallinaceum infected in white leghorn chicken assessed as disease cure from parasite infection at 480 mg/kg, sc administered 72 hrs after infection; type: functional, organism-based; design: dose 480 mg/kg
Staphylococcus aureus [23] = test: Antibacterial activity against Staphylococcus aureus UC-96 by gradient plate test; type: functional
Plasmodium gallinaceum [24] = test: Antimalarial activity against trophozoite-induced Plasmodium gallinaceum infected in white leghorn chicken assessed as increase in mean survival days of host at 1.25 mg/kg, sc administered 72 hrs after infection relative to control; type: functional; settings: route subcutaneous
Plasmodium gallinaceum [25] = test: Antimalarial activity against trophozoite-induced Plasmodium gallinaceum infected in white leghorn chicken assessed as increase in mean survival days of host at 5 mg/kg, sc administered 72 hrs after infection relative to control; type: functional; settings: route subcutaneous
Plasmodium berghei [26] = test: Antimalarial activity against Plasmodium berghei infected in mouse assessed as increase in mean survival days of host at 40 mg/kg, sc administered 72 hrs after infection relative to control; type: functional; settings: route subcutaneous
Plasmodium gallinaceum [27] = test: Antimalarial activity against sporozoite-induced Plasmodium gallinaceum infected in white leghorn chicken assessed as disease cure from parasite infection at 240 mg/kg, sc administered 72 hrs after infection; type: functional, organism-based; design: dose 240 mg/kg
Staphylococcus aureus [28] = test: Antibacterial activity against drug-resistant Staphylococcus aureus S18713 by gradient plate test; type: functional
Plasmodium gallinaceum [29] = test: Antimalarial activity against sporozoite-induced Plasmodium gallinaceum infected in white leghorn chicken assessed as disease cure from parasite infection at 120 mg/kg, sc administered 72 hrs after infection; type: functional, organism-based; design: dose 120 mg/kg
Plasmodium gallinaceum [30] = test: Antimalarial activity against sporozoite-induced Plasmodium gallinaceum infected in white leghorn chicken assessed as increase in mean survival days of host at 30 mg/kg, sc administered 72 hrs after infection relative to control; type: functional; settings: route subcutaneous
Plasmodium gallinaceum [31] = test: Antimalarial activity against trophozoite-induced Plasmodium gallinaceum infected in white leghorn chicken assessed as increase in mean survival days of host at 2.5 mg/kg, sc administered 72 hrs after infection relative to control; type: functional; settings: route subcutaneous
Plasmodium gallinaceum [32] = test: Antimalarial activity against trophozoite-induced Plasmodium gallinaceum infected in white leghorn chicken assessed as increase in mean survival days of host at 20 mg/kg, sc administered 72 hrs after infection relative to control; type: functional; settings: route subcutaneous
Plasmodium gallinaceum [33] = test: Antimalarial activity against trophozoite-induced Plasmodium gallinaceum infected in white leghorn chicken assessed as increase in mean survival days of host at 0.63 mg/kg, sc administered 72 hrs after infection relative to control; type: functional; settings: route subcutaneous
Pseudomonas aeruginosa = test: Antibacterial activity against Pseudomonas aeruginosa 28 by gradient plate test; type: functional
Plasmodium gallinaceum [34] = test: Antimalarial activity against trophozoite-induced Plasmodium gallinaceum infected in white leghorn chicken assessed as increase in mean survival days of host at 10 mg/kg, sc administered 72 hrs after infection relative to control; type: functional; settings: route subcutaneous
Escherichia coli = test: Antibacterial activity against Escherichia coli Vogel by gradient plate test; type: functional
Plasmodium gallinaceum [35] = test: Antimalarial activity against sporozoite-induced Plasmodium gallinaceum infected in white leghorn chicken assessed as disease cure from parasite infection at 30 mg/kg, sc administered 72 hrs after infection; type: functional, organism-based; design: dose 30 mg/kg
Shigella sonnei = test: Antibacterial activity against Shigella sonnei C-10 by gradient plate test; type: functional
Plasmodium gallinaceum [36] = test: Antimalarial activity against sporozoite-induced Plasmodium gallinaceum infected in white leghorn chicken assessed as increase in mean survival days of host at 60 mg/kg, sc administered 72 hrs after infection relative to control; type: functional; settings: route subcutaneous
Plasmodium gallinaceum [37] = test: Antimalarial activity against sporozoite-induced Plasmodium gallinaceum infected in white leghorn chicken assessed as increase in mean survival days of host at 15 mg/kg, sc administered 72 hrs after infection relative to control; type: functional; settings: route subcutaneous
Enterococcus faecalis = test: Antibacterial activity against Streptococcus faecalis MGH-2 by gradient plate test; type: functional
Plasmodium gallinaceum [38] = test: Antimalarial activity against sporozoite-induced Plasmodium gallinaceum infected in white leghorn chicken assessed as increase in mean survival days of host at 120 mg/kg, sc administered 72 hrs after infection relative to control; type: functional; settings: route subcutaneous
Plasmodium gallinaceum [39] = test: Antimalarial activity against sporozoite-induced Plasmodium gallinaceum infected in white leghorn chicken assessed as disease cure from parasite infection at 60 mg/kg, sc administered 72 hrs after infection; type: functional, organism-based; design: dose 60 mg/kg
Plasmodium gallinaceum [40] = test: Antimalarial activity against sporozoite-induced Plasmodium gallinaceum infected in white leghorn chicken assessed as disease cure from parasite infection at 15 mg/kg, sc administered 72 hrs after infection; type: functional, organism-based; design: dose 15 mg/kg
Plasmodium berghei [41] = test: Antimalarial activity against Plasmodium berghei infected in mouse assessed as increase in mean survival days of host at 160 mg/kg, sc administered 72 hrs after infection relative to control; type: functional; settings: route subcutaneous
Plasmodium berghei [42] = test: Antimalarial activity against Plasmodium berghei infected in mouse assessed as increase in mean survival days of host at 320 mg/kg, sc administered 72 hrs after infection relative to control; type: functional; settings: route subcutaneous
Plasmodium berghei [43] = test: Antimalarial activity against Plasmodium berghei infected in mouse assessed as increase in mean survival days of host at 80 mg/kg, sc administered 72 hrs after infection relative to control; type: functional; settings: route subcutaneous
Plasmodium berghei [44] = test: Antimalarial activity against Plasmodium berghei infected in mouse assessed as increase in mean survival days of host at 640 mg/kg, sc administered 72 hrs after infection relative to control; type: functional; settings: route subcutaneous

Row | Compound | MST (Plasmodium berghei [3]) [days] | MST (Plasmodium berghei [4]) [days] | MST (Plasmodium berghei [6]) [days] | Activity (Plasmodium berghei [7]) | Activity (Plasmodium berghei [10]) | Activity (Plasmodium berghei [13]) | Activity (Plasmodium berghei [14]) | MST (Plasmodium berghei [15]) [days] | Activity (Plasmodium berghei [16]) | MST (Plasmodium berghei [18]) [days] | MIC [21] [µg/mL] | Activity (Plasmodium gallinaceum [22]) | MIC (Staphylococcus aureus [23]) [µg/mL] | MST (Plasmodium berghei [26]) [days] | Activity (Plasmodium gallinaceum [27]) | MIC (Staphylococcus aureus [28]) [µg/mL] | Activity (Plasmodium gallinaceum [29]) | MST (Plasmodium gallinaceum [30]) [days] | MIC (Pseudomonas aeruginosa) [µg/mL] | MIC (Escherichia coli) [µg/mL] | other results
1 | CCc1nc(N)nc(N)c1-c1ccc(Cl)cc1 [PYRIMETHAMINE] | 6.1 | 3.1 | 4.7 | Active | Active | Active | Active | 5.3 | Active | 7.7 | – | – | – | – | – | – | – | – | – | – | SD90 (Plasmodium berghei [1]): 0.28 mg/kg/day; Activity (Plasmodium gallinaceum [2]): Active; Activity (Plasmodium gallinaceum [5]): Active; Activity (Plasmodium gallinaceum [8]): Active; Ratio (Plasmodium berghei [9]): 270; Activity (Gallus gallus): Toxic; Activity (Plasmodium gallinaceum [11]): Active; Activity (Mus musculus [12]): Toxic; Activity (Plasmodium gallinaceum [17]): Active; Activity (Plasmodium gallinaceum [19]): Active; Activity (Mus musculus [20]): Toxic
2 | Nc1nc(N)c2cc(Sc3cccc(-c4ccccc4)c3)ccc2n1 | 8.1 | 4.5 | 5.3 | Active | Active | Active | Active | 7.9 | Active | 11.1 | > 25 | Active | < 0.25 | 17.4 | Active | < 0.25 | Active | 1 | > 25 | 10 (≈ 29 µM) | MST (Plasmodium gallinaceum [24]): 0 days; MST (Plasmodium gallinaceum [25]): 0 days; MST (Plasmodium gallinaceum [31]): 0 days; MST (Plasmodium gallinaceum [32]): 0 days; MST (Plasmodium gallinaceum [33]): 0 days; MST (Plasmodium gallinaceum [34]): 0 days; Activity (Plasmodium gallinaceum [35]): Active; MIC (Shigella sonnei): > 25 µg/mL; MST (Plasmodium gallinaceum [36]): 0.3 days; MST (Plasmodium gallinaceum [37]): 0.7 days; MIC (Enterococcus faecalis): < 0.25 µg/mL; MST (Plasmodium gallinaceum [38]): 0.3 days; Activity (Plasmodium gallinaceum [39]): Active
3 | Nc1nc(N)c2cc(Sc3ccccc3-c3ccccc3)ccc2n1 | 0.3 | – | – | – | – | – | Active | – | – | 0.5 | 20 (≈ 58.1 µM) | Active | < 0.25 | 0.5 | Active | < 0.25 | Active | 0 | > 25 | 2.5 (≈ 7.26 µM) | Activity (Plasmodium gallinaceum [40]): Active; MST (Plasmodium berghei [41]): 5.7 days; MST (Plasmodium berghei [42]): 12.5 days; Activity (Plasmodium gallinaceum [35]): Active; MST (Plasmodium berghei [43]): 3.3 days; MIC (Shigella sonnei): > 25 µg/mL; MST (Plasmodium berghei [44]): 16.4 days; MST (Plasmodium gallinaceum [36]): 0 days; MST (Plasmodium gallinaceum [37]): 0 days; MIC (Enterococcus faecalis): < 0.25 µg/mL; Activity (Plasmodium gallinaceum [39]): Active
